# Assay results taken from patent US6589970B2, “6-(aryl-amido or aryl-amidomethyl)-naphthalen-2-yloxy-acidic derivatives as inhibitors of plasminogen activator inhibitor type-1 (PAI-1)” (Wyeth, priority 2001, dated 2003).
# Assays:
# [1] = biological target: T1, recombinant human plasminogen activator inhibitor-1 (PAI-1) (Homo sapiens, UniProt P05121); test: Modification of the Primary Screen for the PAI-1 Inhibition (IC50); type: biochemical
# T1 construct: purchased Molecular Innovations, Royal Oak, Mich
# T1 sequence (P05121 24-402): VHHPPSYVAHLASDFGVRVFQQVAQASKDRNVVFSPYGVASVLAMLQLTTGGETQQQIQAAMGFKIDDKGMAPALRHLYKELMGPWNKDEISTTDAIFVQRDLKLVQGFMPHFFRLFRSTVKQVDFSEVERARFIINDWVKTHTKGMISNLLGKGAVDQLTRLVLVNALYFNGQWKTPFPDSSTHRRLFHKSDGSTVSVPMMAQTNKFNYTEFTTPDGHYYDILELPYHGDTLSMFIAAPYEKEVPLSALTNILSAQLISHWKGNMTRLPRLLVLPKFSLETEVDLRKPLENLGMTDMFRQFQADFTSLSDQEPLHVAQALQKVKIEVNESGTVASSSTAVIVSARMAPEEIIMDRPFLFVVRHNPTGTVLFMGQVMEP
# Description: Test compounds are dissolved in DMSO at a final concentration of 10 mM, then diluted 100× in physiologic buffer. The inhibitory assay is initiated by the addition of the test compound (1-100 μM final concentration, maximum DMSO concentration of 0.2%) in a pH 6.6 buffer containing 140 nM recombinant human plasminogen activator inhibitor-1 (PAI-1; Molecular Innovations, Royal Oak, Mich.). Following a 1 hour incubation at room temperature, 70 nM of recombinant human tissue plasminogen activator (tPA) is added, and the combination of the test compound, PAI-1 and tPA is incubated for an additional 30 minutes. Following the second incubation, Spectrozyme-tPA (American Diagnostica, Greenwich, Conn.), a chromogenic substrate for tPA, is added and absorbance read at 405 nm at 0 and 60 minutes. Relative PAI-1 inhibition is equal to the residual tPA activity in the presence of the test compound and PAI-1. Control treatments include the complete inhibition of tPA by PAI-1 at the molar ratio employed (2:1), and the absence of any effect of the test compound on tPA alone.
# [2] = biological target: T1, recombinant human plasminogen activator inhibitor-1 (PAI-1); test: Primary Screen for the PAI-1 Inhibition; type: biochemical; details: for inhibition at 25 µM: 25 μM test compound, read-out: % Inhib. 25 μM; for inhibition at 100 µM: 100 μM test compound, read-out: % Inhib. 100 μM
# Summary of the method: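 Compound (1-100 μM final, ≤0.2% DMSO) was preincubated for 1 h at room temperature with 140 nM recombinant human PAI-1 at pH 6.6. tPA was then added at 70 nM for 30 min. Residual tPA activity was measured with Spectrozyme-tPA (A405 at 0 and 60 min) and taken as relative PAI-1 inhibition.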
Compound,IC50 [1] [µM],melting point [°C],inhibition at 25 µM [2] [%],inhibition at 100 µM [2] [%]
"CCCCc1oc2ccccc2c1C(=O)Nc1ccc2cc(OCc3nn[nH]n3)ccc2c1 [Example 3, 2-Butyl-benzofuran-3-carboxylic acid [6-(2H-tetrazol-5-ylmethoxy)-naphthalen-2-yl]-amide]",3.2,194 to 198,38,75
"CCCCc1oc2ccccc2c1C(=O)NCc1ccc2c(-c3ccc(Cl)cc3)c(OCc3nnn[nH]3)ccc2c1 [Example 26, 2-Butyl-benzofuran-3-carboxylic acid [5-(4-chloro-phenyl)-6-(1-tetrazol-5-ylmethoxy)-naphthalen-2-ylmethyl]-amide]",4.3,208 to 211,20,98
"CCCCc1oc2ccccc2c1C(=O)NCc1ccc2c(-c3ccccc3)c(OCC(=O)O)ccc2c1 [Example 28, (6-{[(2-Butyl-benzofuran-3-carbonyl)-amino]-methyl}-1-phenyl-naphthanen-2-yloxy)-acetic acid]",20.2,180 to 183,22,100
"CCCCc1oc2ccccc2c1C(=O)NCc1ccc2c(-c3ccc(Cl)cc3)c(OC(Cc3ccccc3)C(=O)O)ccc2c1 (stereo not shown) [Example 29, 2-[6-{[(2-Butyl-benzofuran-3-carbonyl)-amino]-methyl}-1-(4-chloro-phenyl)-naphthalen-2-yloxy]-3-phenyl-propionic acid]",8.5,–,23,100
"CCCc1c(C(=O)NCc2ccc3c(Br)c(OC(Cc4ccccc4)C(=O)O)ccc3c2)cnn1-c1ccccc1 (stereo not shown) [Example 54, 2-(1-Bromo-6-{[(1-phenyl-5-propyl-1H-pyrazole-4-carbonyl)-amino]-methyl}-naphthalen-2-yloxy)-3-phenyl-propionic acid]",11.8,–,18,80
"CC(C)(C)c1cc(C(=O)NCc2ccc3c(Br)c(OC(Cc4ccccc4)C(=O)O)ccc3c2)cc(C(C)(C)C)c1 (stereo not shown) [Example 56, 2-{1-Bromo-6-[(3,5-di-tert-butyl-benzoylamino)-methyl]-naphthalen-2-yloxy}-3-phenyl-propionic acid]",1.9,160 to 163,84,100
"O=C(NCc1ccc2c(Br)c(OC(Cc3ccccc3)C(=O)O)ccc2c1)c1cccc(Oc2ccccc2)c1 (stereo not shown) [Example 57, 2-{1-Bromo-6-[(3-phenoxy-benzoylamino)-methyl]-naphthalen-2-yloxy}-3-phenyl-propionic acid]",5.5,–,24,98
"O=C(O)COc1ccc2cc(CNC(=O)c3cc(-c4ccccc4Cl)oc3C(F)(F)F)ccc2c1 [Example 81, [6-({[5-(2-Chloro-phenyl)-2-trifluoromethyl-furan-3-carbonyl]-amino}-methyl)-naphthalen-2-yloxy]-acetic acid]",36.5,–,12,78
